# “Also recorded” adds a separate entry of the source. Marks after values point to notes of the source that are not given here.
# Legend:
# [1] = tested on: (S)-selective ω-transaminase derived from O. anthropi; test: Substrate specificity of ω-transaminase toward 11 racemic amines (initial rate, relative reactivity); assay type: biochemical, Ochrobactrum anthropi; conditions: for Relative reactivity (%): PLP 0.1 mM, 10 min, activity toward α-methylbenzylamine defined as 100%; for Activity toward (S)-1-aminoindane relative to (S)-α-methylbenzylamine: (S)-enantiomer compared with (S)-α-methylbenzylamine, value in parentheses in Table 13
# Experimental: An investigation was made as to the substrate specificities of the (S)-selective ω-transaminase derived from O. anthropi, which was purified in Example 7, toward 11 amines: α-methylbenzylamine 1a, 4-fluoro-α-methylbenzylamine 1b, α-ethylbenzylamine 1c, 1-methyl-3-phenylpropylamine 1d, 1-aminoindane 1e, sec-butylamine 1f, cyclopropylethylamine 1g, 2-aminopentane 1h, 2-aminooctane 1i, 1-methoxy-2-propylamine 1j, and alaninol 1k. 0.125 U/ml of the (S)-selective transaminase derived from O. anthropi was added to each racemic amine (10 mM), pyruvate (10 mM), PLP (0.1 mM), and phosphate buffer (50 mM, pH 7.5) at 37° C. After the mixture was allowed to react for 10 min, the amount of L-alanine produced was measured via GITC derivatization. All activities were measured in the initial reaction rate range of ≦5% conversion. The initial reaction rate for α-methylbenzylamine was measured to be 0.033 mM/min. When the activity of the ω-transaminase toward α-methylbenzylamine was defined as 100%, the activities of the ω-transaminase toward 4-fluoro-α-methylbenzylamine 1b, α-ethylbenzylamine 1c, 1-methyl-3-phenylpropylamine 1d, and 1-aminoindane 1e as arylalkylamines were 91%, 18%, 70%, and 64%, respectively. The activity of the ω-transaminase toward (S)-1-aminoindane was 153% of that toward (S)-α-methylbenzylamine. The activities of the ω-transaminase toward sec-butylamine 1f, cyclopropylethylamine 1g, 2-aminopentane 1h, 2-aminooctane 1i, 1-methoxy-2-propylamine 1j, and alaninol 1k as alkylamines were 54%, 63%, 29%, 146%, 60%, and 63%, respectively.
# [2] = tested on: (S)-selective ω-transaminase derived from O. anthropi; assay type: biochemical, Ochrobactrum anthropi; conditions: for Activity of (S)-selective ω-transaminase toward amine (in words): Table 10, speaks of the (S)-selective ω-transaminase without naming O. anthropi or P. denitrificans; for L-alanine (mM) O. anthropi: amine 20 mM (40 mM racemic sec-butylamine), pyruvate as acceptor, 50 mM potassium phosphate pH 7, 37° C., 10 min
# Experimental: (§1) The substrate specificity of the (S)-selective ω-transaminase was confirmed in each amine (20 mM), (S)-amine (20 mM, in 40 mM racemic sec-butylamine) and potassium phosphate (50 mM, pH 7). After the reactions were carried out at 37° C. for 10 min, the amounts of L-alanine produced were measured.
# [3] = tested on: (S)-selective ω-transaminase derived from P. denitrificans; test: Substrate specificity of (S)-selective ω-transaminase toward amines (L-alanine from pyruvate); assay type: biochemical, Paracoccus denitrificans; conditions: amine 20 mM (40 mM racemic sec-butylamine), pyruvate as acceptor, 50 mM potassium phosphate pH 7, 37° C., 10 min
# Experimental: as §1
# [4] = tested on: D-amino acid transaminase; test: Substrate specificity of purified D-amino acid transaminase toward keto acids (amino acceptors); assay type: biochemical, Bacillus sphaericus; conditions: for Pyruvate (mM) generated: D-alanine 20 mM as amino donor; for Activity of D-amino acid transaminase toward amino acceptor (in words): Tables 7 and 8
# Experimental: Each of amino acceptors shown in Tables 7 and 8 and D-alanine or D-homoalanine as substrates were allowed to react with the D-amino acid transaminase purified in Example 7. Specifically, each amino acceptor (20 mM), D-alanine or D-homoalanine (20 mM), and potassium phosphate (50 mM, pH 7) were allowed to react with 0.1 U/ml of the D-amino acid transaminase at 37° C. for 10 min, and the amount of a keto acid (pyruvate or 2-oxobutyrate) generated was measured.
# [5] = tested on: (S)-selective ω-transaminase derived from O. anthropi; test: Substrate specificity of (S)-selective ω-transaminase toward keto acids; assay type: biochemical, Ochrobactrum anthropi; conditions: for Acetophenone (mM) O. anthropi: keto acid 20 mM, (S)-α-methylbenzylamine 20 mM, 50 mM potassium phosphate pH 7, 37° C., 10 min; for Activity of (S)-selective ω-transaminase toward keto acid (in words): Table 9, speaks of the (S)-selective ω-transaminase without naming O. anthropi or P. denitrificans
# Experimental: (§2) The substrate specificity of the (S)-selective ω-transaminase was confirmed in each keto acid (20 mM), (S)-α-methylbenzylamine (20 mM) and potassium phosphate (50 mM, pH 7). After the reactions were carried out at 37° C. for 10 min, the amounts of acetophenone produced were measured.
# [6] = tested on: (S)-selective ω-transaminase derived from P. denitrificans; test: as above; assay type: biochemical, Paracoccus denitrificans; conditions: for Acetophenone (mM) P. denitrificans: keto acid 20 mM, (S)-α-methylbenzylamine 20 mM, 50 mM potassium phosphate pH 7, 37° C., 10 min
# Experimental: as §2
# [7] = tested on: D-amino acid transaminase; test: Effect of L-amino acid concentration on activity of D-amino acid transaminase; assay type: biochemical, Bacillus sphaericus; conditions: 0-20 mM L-homoalanine in 20 mM D-homoalanine, 20 mM pyruvate, pH 7, 37° C., 10 min; 2-oxobutyrate measured
# Experimental: For continuous deracemization of a racemic amino acid with the D-amino acid transaminase purified in Example 7, L-amino acid as a final product should not affect the activity of the D-amino acid transaminase. Deterioration in the activity of the enzyme by the final product makes it difficult to induce continuous reactions. The activities of the D-amino acid transaminase were confirmed at different concentrations (0, 1, 3, 5, 7, 10, 15, and 20 mM) of L-homoalanine in 20 mM D-homoalanine, 20 mM pyruvate, and 50 mM potassium phosphate (pH 7). After the reactions were carried out at 37° C. for 10 min, the amounts of 2-oxobutyrate produced were measured.
# [8] = racemic amine 10 mM, pyruvate 10 mM, 0.125 U/ml enzyme, pH 7.5, 37° C.
# [9] = amino acceptor 20 mM, 0.1 U/ml enzyme, 50 mM potassium phosphate pH 7, 37° C., 10 min
SMILES,"Relative reactivity (%) [1, 8]","Pyruvate (mM) generated [4, 9] [mM]",Acetophenone (mM) O. anthropi [5] [mM],Acetophenone (mM) P. denitrificans [6] [mM],Activity of D-amino acid transaminase toward amino acceptor (in words) [4],other results
"CC(N)c1ccccc1 (racemic) [Substrate 1a, α-methylbenzylamine]",100^c %,,,,,"Initial reaction rate ([1]; racemic amine 10 mM, pyruvate 10 mM, 0.125 U/ml enzyme, pH 7.5, 37° C., ≦5% conversion): 0.033 mM/min"
"CC(N)c1ccc(F)cc1 (racemic) [Substrate 1b, 4-fluoro-α-methylbenzylamine]",91%,,,,,
"CCC(N)c1ccccc1 (racemic) [Substrate 1c, α-ethylbenzylamine]",18%,,,,,
"CC(N)CCc1ccccc1 (racemic) [Substrate 1d, 1-methyl-3-phenylpropylamine]",70%,,,,,
"NC1CCc2ccccc21 (racemic) [Substrate 1e, 1-aminoindane]",64%,,,,,Activity toward (S)-1-aminoindane relative to (S)-α-methylbenzylamine [1]: 153%
"CCC(C)N (racemic) [Substrate 1f, sec-butylamine]",54%,,,,,Activity of (S)-selective ω-transaminase toward amine (in words) [2]: have activity; L-alanine (mM) O. anthropi [2]: 0.164 ± 0.019 mM; L-alanine (mM) P. denitrificans [3]: 0.000 ± 0.000 mM
"CCCC(C)N (racemic) [Substrate 1h, 2-aminopentane]",29%,,,,,
"CCCCCCC(C)N (racemic) [Substrate 1i, 2-aminooctane]",146%,,,,,
"COCC(C)N (racemic) [Substrate 1j, 1-methoxy-2-propylamine]",60%,,,,,
O=C(O)C(=O)C12CC3CC(CC(O)(C3)C1)C2 [2-(3-Hydroxy-1-adamantyl)-oxoethanoate],,0.000,-0.002,-0.004,,
CCCCC(=O)C(=O)O [2-Ketohexanoate],,0.531,0.006,0.713,have activity,Activity of (S)-selective ω-transaminase toward keto acid (in words) [5]: have activity
CCC(=O)C(=O)O [2-Oxobutyrate],,1.375,0.173,0.821,have activity,Activity of (S)-selective ω-transaminase toward keto acid (in words) [5]: have activity
CCCC(=O)C(=O)O [2-Oxopentanoate],,0.882,0.078,1.032,have activity,"2-Oxobutyrate (mM) generated ([4]; amino acceptor 20 mM, D-homoalanine 20 mM as amino donor, 0.1 U/ml enzyme, 50 mM potassium phosphate pH 7, 37° C., 10 min): 0.651 mM; Activity of (S)-selective ω-transaminase toward keto acid (in words) [5]: have activity"
CC(C)C(=O)C(=O)O [3-Methyl-2-oxobutyrate],,0.014,-0.001,-0.002,have activity,
CCC(C)C(=O)C(=O)O (stereo not drawn) [3-Methyl-2-oxopentanoate],,,0.001,-0.004,,
CC(C)CC(=O)C(=O)O [4-Methyl-2-oxopentanoate],,0.073,0.005,0.175,have activity,"Activity of (S)-selective ω-transaminase toward keto acid (in words) ([6]; Table 9, marked (P. denitrificans)): have activity"
N[C@H]1CCc2ccccc21 [(S)-1-aminoindane],,,,,,Activity toward (S)-1-aminoindane relative to (S)-α-methylbenzylamine [1]: 153%
C[C@H](N)c1ccccc1 [(S)-α-methylbenzylamine],,,,,,Activity of (S)-selective ω-transaminase toward amine (in words) [2]: have activity; L-alanine (mM) O. anthropi [2]: 0.715 ± 0.082 mM; L-alanine (mM) P. denitrificans [3]: 0.451 ± 0.077 mM
O=C(O)C(=O)CF [Fluoropyruvate],,0.053,0.554,0.339,have activity,Activity of (S)-selective ω-transaminase toward keto acid (in words) [5]: have activity
O=CC(=O)O [Glyoxylate],,,1.733,1.076,,Activity of (S)-selective ω-transaminase toward keto acid (in words) [5]: have activity
CC(C)N [Isopropylamine],,,,,,Activity of (S)-selective ω-transaminase toward amine (in words) [2]: have activity; L-alanine (mM) O. anthropi [2]: 0.309 ± 0.050 mM; L-alanine (mM) P. denitrificans [3]: 0.033 ± 0.002 mM
CC[C@H](N)C(=O)O [L-homoalanine],,,,,,Effect of L-amino acid on activity of D-amino acid transaminase (FIG. 1) [7]: did not lose its activity
O=C(O)C(=O)CS [Mercaptopyruvate],,0.022,0.012,0.008,have activity,
O=CC(=O)Oc1ccccc1 [Phenyl glyoxylate],,0.000,-0.005,-0.008,,
"CC(N)CO (stereo not drawn) [Substrate 1k, alaninol]",63%,,,,,
CC(C)(C)C(=O)C(=O)O [Trimethylpyruvate],,0.000,-0.002,-0.004,,
O=C(O)CCC(=O)C(=O)O [α-Ketoglutarate],,0.971,-0.001,-0.003,have activity; also recorded: had activity,Activity of (S)-selective ω-transaminase toward keto acid (in words) [5]: no activity
O=C(O)C(=O)CO [β-Hydroxypyruvate],,0.079,0.183,0.066,have activity,Activity of (S)-selective ω-transaminase toward keto acid (in words) [5]: have activity

# From patent US9777301B2, “Method for producing optically active amine compounds by deracemization” (INDUSTRY-ACADEMIC COOPERATION FOUNDATION, YONSEI UNIVERSITY, priority 2012, dated 2017)
